Patent US6787522B2, “Antibacterial agents” (British Biotech Pharmaceuticals, priority 1998, dated 2004)
Converted amounts (≈) assume the structure as drawn. Where two headings read alike, the source gives them in different places.

How the values were obtained:
Format in all cases: cell-based
[1] = tested on: Pseudomonas aeruginosa ATCC 27853; assay: MIC, Microdilution Broth Method (NCCLS); conditions: ATCC27853
[2] = tested on: Morganella morganii ATCC 36030; assay: MIC, Microdilution Broth Method (NCCLS); conditions: ATCC36030
[3] = tested on: Mycobacterium ranae (American Type Culture Collection number 110); assay: MIC, Brain Heart Infusion broth; conditions: M. ranae, 37° C., 48 hours
[4] = tested on: Enterococcus faecalis (Vancomycin resistant strain); assay: MIC, Microdilution Broth Method (NCCLS)
[5] = tested on: clinical isolates of aminoglycoside and erythromycin resistant Streptococcus pneumoniae; assay: MIC, tryptic soy broth with 7% calf serum
[6] = tested on: Escherichia coli ATCC 12014; assay: MIC, Microdilution Broth Method (NCCLS); conditions: ATCC12014
[7] = tested on: Escherichia coli ATCC 25922; assay: MIC, Microdilution Broth Method (NCCLS); conditions: ATCC25922
[8] = tested on: Pseudomonas aeruginosa (American Type Culture Collection number 9027); assay: MIC, Nutrient Broth; conditions: P. aeruginosa, 37° C., 20 hours
[9] = tested on: Helicobacter pylori (American Type Culture Collection number 43504); assay: MIC, Columbia agar base with 7% sheep blood; conditions: H. pylori, 35° C., 72 hours
[10] = tested on: methicillin-resistant (MR) Staphylococcus aureus (American Type Culture Collection number 33591); assay: MIC, Nutrient Broth; conditions: S. aureus (MR), 37° C., 20 hours
E. coli strain DH5α = assay: MIC, two fold serial dilution in 2xYT broth; conditions: Escherichia coli, 37° C., 18 hours
[11] = tested on: Enterobacter cloacae (American Type Culture Collection number 13047); assay: MIC, two fold serial dilution in 2xYT broth; conditions: 37° C., 18 hours
[12] = tested on: Klebsiella pneumoniae (American Type Culture Collection number 13883); assay: MIC, two fold serial dilution in 2xYT broth; conditions: 37° C., 18 hours
[13] = tested on: Staphylococcus capitis (American Type Culture Collection number 35661); assay: MIC, two fold serial dilution in 2xYT broth; conditions: 37° C., 18 hours
[14] = tested on: Klebsiella pneumoniae (American Type Culture Collection number 10031); assay: MIC, Nutrient Broth; conditions: K. pneumoniae, 37° C., 20 hours
[15] = tested on: Klebsiella pneumoniae ATCC 13883; assay: MIC, Microdilution Broth Method (NCCLS); conditions: ATCC13883
[16] = tested on: Enterococcus faecalis ATCC 29212; assay: MIC, Microdilution Broth Method (NCCLS)
[17] = tested on: Staphylococcus aureus ATCC 29213 MSSA; assay: MIC, Microdilution Broth Method (NCCLS)
[18] = tested on: Micrococcus luteus ATCC 9341; assay: MIC, Microdilution Broth Method (NCCLS); conditions: ATCC9341
[19] = tested on: Enterobacter cloacae ATCC 13047; assay: MIC, Microdilution Broth Method (NCCLS); conditions: ATCC13047
[20] = tested on: Staphylococcus aureus ATCC 6538 MSSA; assay: MIC, Microdilution Broth Method (NCCLS)
[21] = tested on: Staphylococcus aureus ATCC 25923 MSSA; assay: MIC, Microdilution Broth Method (NCCLS)
[22] = tested on: Staphylococcus epidermidis ATCC 27626; assay: MIC, Microdilution Broth Method (NCCLS); conditions: ATCC27626
[23] = tested on: Staphylococcus epidermidis ATCC 1228; assay: MIC, Microdilution Broth Method (NCCLS); conditions: ATCC1228
[24] = Enterococcus faecalis (Vancomycin resistant strain), Gram-positive table, read-out: MIC
[25] = Streptococcus pneumoniae, S. pneumoniae, tryptic soy broth, 7% calf serum, 37° C., 48 hours, read-out: MIC
[26] = Pseudomonas aeruginosa, read-out: MIC
[27] = Helicobacter pylori, read-out: MIC
[28] = ATCC29212, Enterococcus faecalis ATCC 29212, Gram-positive table, read-out: MIC
[29] = Staphylococcus aureus ATCC 29213 MSSA, read-out: MIC
[30] = Micrococcus luteus ATCC 9341, read-out: MIC
[31] = Staphylococcus aureus ATCC 6538 MSSA, read-out: MIC
[32] = Staphylococcus aureus ATCC 25923 MSSA, read-out: MIC
[33] = Staphylococcus epidermidis ATCC 27626, read-out: MIC
[34] = Staphylococcus epidermidis ATCC 1228, read-out: MIC
[35] = Enterococcus faecalis Vancomycin resistant strain (multi-resistant clinical isolate), read-out: MIC
[36] = ATCC29212, Enterococcus faecalis ATCC 29212, table of multi-resistant clinical isolate, read-out: MIC
[37] = Enterococcus faecalis, ATCC29212
[38] = Enterococcus faecalis Vancomycin resistant strain (multi-resistant clinical isolate)
[39] = Enterococcus faecalis ATCC 29212, table of multi-resistant clinical isolate

For `CCCCC(CN(O)C=O)C(=O)N[C@H](C(=O)NC)C(C)(C)C` (single isomer, unassigned) [Compound 1, 2R (or S)-[(Formyl-hydroxy-amino)-methyl]-hexanoic acid-(2,2-dimethyl-1S-methyl-carbamoyl-propyl)-amide], the MIC [1] was > 128 µg/mL, the MIC [2] was 128 µg/mL (≈ 406 µM) and the MIC [3] was 0.78 µg/mL (≈ 2.47 µM). The MIC [4, 24] was 128 µg/mL (≈ 406 µM), the MIC [5, 25] was 50 µg/mL (≈ 159 µM) and the MIC [6] was 4 µg/mL (≈ 12.7 µM). For the same molecule, the MIC [7] was 4 µg/mL (≈ 12.7 µM), the MIC [8, 26] was 12.5 µg/mL (≈ 39.6 µM) and the MIC [9, 27] was 0.1 µg/mL (≈ 0.317 µM). For the same molecule, the MIC ([10]; Staphylococcus aureus, read-out: MIC) was 3.13 µg/mL (≈ 9.92 µM), the MIC (E. coli strain DH5α) was 12.5 µM (≈ 3.94 µg/mL) and the MIC [11] was 50 µM (≈ 15.8 µg/mL). It also gave an MIC [12] of 25 µM (≈ 7.89 µg/mL), an MIC [13] of 100 µM (≈ 31.5 µg/mL) and an MIC ([14]; Klebsiella pneumoniae, read-out: MIC) of 0.2 µg/mL (≈ 0.634 µM). For the same molecule, the MIC [15] was 16 µg/mL (≈ 50.7 µM), the MIC [16, 28] was 32 µg/mL (≈ 101 µM) and the MIC [17, 29] was 32 µg/mL (≈ 101 µM). For the same molecule, the MIC [18, 30] was 0.5 µg/mL (≈ 1.59 µM), the MIC [19] was 32 µg/mL (≈ 101 µM) and the MIC [20, 31] was 8 µg/mL (≈ 25.4 µM). It also gave an MIC [21, 32] of 16 µg/mL (≈ 50.7 µM), an MIC [22, 33] of 8 µg/mL (≈ 25.4 µM) and an MIC [23, 34] of 8 µg/mL (≈ 25.4 µM).
In the case of `CC1(C)S[C@@H]2[C@H](NC(=O)[C@H](N)c3ccccc3)C(=O)N2[C@H]1C(=O)O` [Ampicillin, ampicillin], the MIC [4, 35] is reported as > 128 µg/mL, the MIC ([5]; Streptococcus pneumoniae, 48 h) is reported as 3.13 µg/mL (≈ 8.96 µM) and the MIC [8, 26] is reported as 100 µg/mL (≈ 286 µM). The MIC [9, 27] was 0.1 µg/mL (≈ 0.286 µM) and the MIC [16, 36] was 0.5 µg/mL (≈ 1.43 µM).
For `CC(C)(O/N=C(\C(=O)N[C@@H]1C(=O)N2C(C(=O)[O-])=C(C[n+]3ccccc3)CS[C@H]12)c1csc(N)n1)C(=O)O` [Ceftazidime], the MIC ([4]; Enterococcus faecalis) was > 128 µg/mL and the MIC [16, 37] was 128 µg/mL (≈ 234 µM).
`CCCCC(CN(O)C=O)C(=O)N[C@H](C(=O)N(C)C)C(C)(C)C` (stereo partly drawn) [Compound 3, 2R (or S)-[(Formyl-hydroxy-amino)-methyl]-hexanoic acid-(1S-dimethylcarbamoyl-2,2-dimethyl-propyl)-amide] was tested, and the MIC [1] was 128 µg/mL (≈ 389 µM), the MIC [2] was > 128 µg/mL and the MIC [4, 24] was 8 µg/mL (≈ 24.3 µM). For the same molecule, the MIC [4, 38] was 8 µg/mL (≈ 24.3 µM), the MIC [6] was 4 µg/mL (≈ 12.1 µM) and the MIC [7] was 4 µg/mL (≈ 12.1 µM). It also gave an MIC [15] of 16 µg/mL (≈ 48.6 µM), an MIC [16, 28] of 32 µg/mL (≈ 97.1 µM) and an MIC [16, 39] of 32 µg/mL (≈ 97.1 µM). For the same molecule, the MIC [17, 29] was 8 µg/mL (≈ 24.3 µM), the MIC [18, 30] was 0.5 µg/mL (≈ 1.52 µM) and the MIC [19] was 32 µg/mL (≈ 97.1 µM). It also gave an MIC [20, 31] of 4 µg/mL (≈ 12.1 µM), an MIC [21, 32] of 16 µg/mL (≈ 48.6 µM) and an MIC [22, 33] of 2 µg/mL (≈ 6.07 µM). For the same molecule, the MIC [23, 34] was 4 µg/mL (≈ 12.1 µM).
Work on `CN(C)C(=O)[C@@H](NC(=O)C(CC1CCCC1)CN(O)C=O)C(C)(C)C` (stereo partly drawn) [Cpd 4, 2R (or S)-[(Formyl-hydroxy-amino)-methyl]-3-cyclopentyl-propionic acid (1S-dimethyl-carbamoyl-2,2-dimethyl-propyl)-amide] yielded an MIC [4, 35] of 4 µg/mL (≈ 11.3 µM) and an MIC [16, 36] of 8 µg/mL (≈ 22.5 µM).
For `CC[C@H]1OC(=O)[C@H](C)[C@@H](O[C@H]2C[C@@](C)(OC)[C@@H](O)[C@H](C)O2)[C@H](C)[C@@H](O[C@@H]2O[C@H](C)C[C@H](N(C)C)[C@H]2O)[C@](C)(O)C[C@@H](C)C(=O)[C@H](C)[C@@H](O)[C@]1(C)O` [Erythromycin, erythromycin], the MIC [4, 35] was > 128 µg/mL, the MIC [5, 25] was 100 µg/mL (≈ 136 µM) and the MIC [16, 36] was 2 µg/mL (≈ 2.73 µM).
In the case of `C[C@@H](O)[C@H]1C(=O)N2C(C(=O)O)=C(SCCN=CN)C[C@H]12` [Imipenem], the MIC [4, 35] is reported as > 128 µg/mL and the MIC [16, 36] is reported as 1 µg/mL (≈ 3.34 µM).
In the case of `CN[C@H](CC(C)C)C(=O)N[C@H]1C(=O)N[C@@H](CC(N)=O)C(=O)N[C@H]2C(=O)N[C@H]3C(=O)N[C@H](C(=O)N[C@H](C(=O)O)c4cc(O)cc(O)c4-c4cc3ccc4O)[C@H](O)c3ccc(c(Cl)c3)Oc3cc2cc(c3O[C@@H]2O[C@H](CO)[C@@H](O)[C@H](O)[C@H]2O[C@H]2C[C@](C)(N)[C@H](O)[C@H](C)O2)Oc2ccc(cc2Cl)[C@H]1O` [Vancomycin, reference compound], the MIC ([4]; Enterococcus faecalis) is reported as > 128 µg/mL, the MIC [4, 38] is reported as >128 µg/mL and the MIC [16, 39] is reported as 1 µg/mL (≈ 0.69 µM). For the same molecule, the MIC [16, 37] was 1 µg/mL (≈ 0.69 µM), the MIC ([17]; Staphylococcus aureus) was 0.25 µg/mL (≈ 0.173 µM) and the MIC ([18]; Micrococcus luteus) was 0.25 µg/mL (≈ 0.173 µM). The MIC ([20]; Staphylococcus aureus) was 0.5 µg/mL (≈ 0.345 µM), the MIC ([21]; Staphylococcus aureus) was 0.5 µg/mL (≈ 0.345 µM) and the MIC ([22]; Staphylococcus epidermidis) was 0.5 µg/mL (≈ 0.345 µM). The MIC ([23]; Staphylococcus epidermidis) was 0.5 µg/mL (≈ 0.345 µM).
For `CC1(C)S[C@@H]2[C@H](NC(=O)C(C(=O)O)c3ccccc3)C(=O)N2[C@H]1C(=O)O` (stereo partly drawn) [carbenicillin], the MIC (E. coli strain DH5α) was 25 µM (≈ 9.46 µg/mL), the MIC [11] was > 200 µM and the MIC [12] was 200 µM (≈ 75.7 µg/mL). For the same molecule, the MIC [13] was < 1.56 µM.
In the case of `O=C(N[C@H](CO)[C@H](O)c1ccc([N+](=O)[O-])cc1)C(Cl)Cl` [chloramphenicol], the MIC (E. coli strain DH5α) is reported as 3.12 µM (≈ 1.01 µg/mL), the MIC [11] is reported as 25 µM (≈ 8.08 µg/mL) and the MIC [12] is reported as 12.5 µM (≈ 4.04 µg/mL). It also gave an MIC [13] of 6.25 µM (≈ 2.02 µg/mL).
Work on `NC[C@H]1O[C@H](O[C@H]2[C@H](O)[C@@H](O[C@H]3O[C@H](CO)[C@@H](O)[C@H](N)[C@H]3O)[C@H](N)C[C@@H]2N)[C@H](O)[C@@H](O)[C@@H]1O` [kanamycin] yielded an MIC (E. coli strain DH5α) of 12.5 µM (≈ 6.06 µg/mL), an MIC [11] of 50 µM (≈ 24.2 µg/mL) and an MIC [12] of 25 µM (≈ 12.1 µg/mL). For the same molecule, the MIC [13] was < 1.56 µM.
gentamycin [reference compound] was tested, and the MIC ([5]; S. pneumoniae, tryptic soy broth, 7% calf serum, 37° C., 48 hours) was 100 µg/mL, the MIC [8] was 0.78 µg/mL and the MIC [9] was 0.78 µg/mL. For the same molecule, the MIC [10] was 0.78 µg/mL and the MIC [14] was 0.39 µg/mL.
